The target of assay [1] is Inosine-5'-monophosphate dehydrogenase 1 (Homo sapiens, UniProt P20839). The assay is described as follows: Inhibition of human IMPDH 1.
Assay [2] addresses Inosine-5'-monophosphate dehydrogenase 2 (Homo sapiens, UniProt P12268). The assay can be described thus: Inhibition of human IMPDH 2.
The target in assay [3] is Histone deacetylase. It counts as protein assay, Homo sapiens.
The subject of assay [4] is K562. The assay is described as follows: cells. As to conditions: Homo sapiens, K562, 72 h. It counts as functional, cell-based.
The test system of assay [5] is K562. The assay is described as follows: Differentiation of K562 cells at 0.50 uM after 5 days by […]. Type of assay: functional, Homo sapiens. In general terms: Tetrazolium assays rely on reduction of a dye to a coloured formazan, in cell work by metabolically active cells.
For assay [6], the system named is K562. The assay is described as follows: Differentiation of K562 cells at 0.25 uM after 5 days by […]. It counts as functional, Homo sapiens.
The test system of assay [7] is K562. The assay is described as follows: Differentiation of K562 cells at 0.005 uM after 5 days by […]. It counts as functional, Homo sapiens.

Activity calls are given as the source filed them. The rule behind the calls is not given here. A value given as a limit tells only on which side of the number the result lay.

Usually Ki stands for a measure of affinity in units of concentration, obtained from inhibition or displacement. One may read the IC50 as the concentration needed to halve the response being measured. As for `COc1c(C)c2c(c(O)c1C/C=C(\C)CCC(=O)Nc1ccccc1N)C(=O)OC2`, the Ki was 2830 nM in assay [1] and 650 nM in assay [2]. The IC50 is more than 100000 nM in assay [3] and 60000 nM in assay [4].
On to `COc1c(C)c2c(c(O)c1CCC(C)CCC(=O)NO)C(=O)OC2` (stereo not given), for which the Ki in assay [1] was 2070 nM; in assay [2] it was 540 nM. Also, the IC50 in assay [3] worked out at 20100 nM; in assay [4], 44700 nM.
For `COc1c(C)c2c(c(O)c1C/C=C(\C)CCCC(=O)NO)C(=O)OC2` the same measures were 400 nM, 1100 nM, 10400 nM and 10800 nM.
For `O=C(CCCCCCC(=O)Nc1ccccc1)NO` [VORINOSTAT], the result in assay [1] and in assay [2] was inactive. This compound returned an Activity in assay [5] of 47.4%.
In assay [6], `COc1c(C)c2c(c(O)c1C/C=C(\C)CCC(=O)O)C(=O)OC2` [MYCOPHENOLIC ACID] yielded an Activity of 46.4%.
Consider `COc1cc(NC(=O)CCCCCCC(=O)NO)ccc1-c1cnco1`, for which the values for the Ki in assay [1] and in assay [2] were 5000 nM and 1700 nM, respectively. The IC50 in assay [3] came out at 60 nM; in assay [4] it was 290 nM. Besides, in assay [7], the Activity came to 87.8%.
Consider `COc1c(C)c2c(c(OC)c1C/C=C(\C)CCC(=O)NO)C(=O)OC2`, for which the result in assay [1] and in assay [2] was inactive. Also, the IC50 in assay [3] was 14000 nM; in assay [4] it was 42300 nM.
Turning to `COc1c(C)c2c(c(O)c1C/C=C(\C)CCC(=O)NO)C(=O)OC2` [MYCOPHENOLIC HYDROXAMIC ACID], the Ki in assay [1] turned out to be 70 nM; in assay [2], 30 nM. Also, the IC50 in assay [3] is 5000 nM; in assay [4] it was 4800 nM. This compound also displayed an Activity in assay [6] of 75%.

Values taken from ChEMBL document CHEMBL1138342, “Dual inhibitors of inosine monophosphate dehydrogenase and histone deacetylases for cancer treatment” (J Med Chem, 2007).
